PMC10342533, “Novel Tetrazole Derivatives Targeting Tubulin Endowed with Antiproliferative Activity against Glioblastoma Cells” (International Journal of Molecular Sciences, 2023)
Several values for one entry are separate records, joined by “and”; a condition that tells them apart may be missing. Identical values can stand only once.

Experiments:
Assay type in all cases: cell-based, human
MCF7 cells [1] = assay: Apoptotic cell death quantification, Annexin V-FITC/PI, MCF7; conditions: MCF7, 72 h, 100 nM; for Necrotic cells: PI+ AnV−
Experimental: To characterize the cell death mechanism induced by the representative compounds 10, 12, or 14 at 100 nM on HeLa, MCF7, and U87 MG cells, dual-channel flow cytometry studies were carried out for cells in the absence (negative control) or presence of compounds 72 h after treatment. Fluorescein isothiocyanate-labeled Annexin V (FITC-AnV) and propidium iodide (PI) were used for double staining. Regarding their response to AnV and PI, cells can be identified as viable (PI−, AnV−), early apoptotic (PI−, AnV+), late apoptotic or secondary necrotic (PI+, AnV+), or necrotic (PI+, AnV−). The translocation of the phosphatidylserine from the inner to the outer cell membrane causes the response of apoptotic cells to AnV, whereas only cells suffering some kind of membrane disintegration (late apoptotic or necrotic cells) allow PI permeation.
Following the manufacturer’s guidelines, an Annexin V-FITC/PI apoptosis detection kit (Immunostep, Salamanca, Spain) was used to quantify HeLa, MCF7, or U87 MG cells. Cells were seeded in 12-well plates (5·10^4 cells/mL, 1 mL/well) and incubated in complete DMEM medium (see above) at 37 °C and 5% CO2 atmosphere for 24 h. Then, the cells were treated with selected compounds (10, 12, or 14) at 100 nM, and untreated cells were used as negative controls. Then, 72 h after incubation, the cells were harvested, centrifugated, resuspended in the Annexin V binding buffer, and incubated in darkness with Annexin V-FITC/PI for 15 min at room temperature. The samples were analyzed by using a BD Accuri™ C6 Plus Flow Cytometer (BD Biosciences), and acquired data were analyzed via BD Accuri™ C6 Software (version 1.0.264.21).

MCF7 cells [2] = assay: Cell cycle analysis by flow cytometry (PI), MCF7; conditions: 100 nM
Experimental: (§1) To assess how tubulin polymerization inhibition and the effects on the microtubule network affect the cell cycle, flow cytometry experiments were performed on HeLa, MCF7, and U87 MG cells 24, 48, and 72 h after treatments with compounds 10, 12, and 14 at 100 nM using propidium iodide (PI) for DNA staining and untreated cells as the negative control.
(§2) HeLa, MCF7, or U87 MG cells were seeded in 6-well plates (8·10^4 cells/mL, 2 mL/well) and incubated in complete DMEM Medium (see above) at 37 °C and 5% CO2 atmosphere for 24 h. Then, the cells were treated with selected compounds (10, 12, or 14) at 100 nM, and untreated cells were used as negative controls. Cells were collected 24, 48, or 72 h following treatment and fixed overnight in ethanol/PBS (7:3) at 4 °C. After two washes with PBS, cells were suspended in PBS and incubated in darkness overnight with 0.2 mg/mL RNase A (Sigma-Aldrich, St. Louis, MO, USA), 50 µg/mL propidium iodide (Sigma-Aldrich, St. Louis, MO, USA), and Triton 10x at room temperature. A BD Accuri™ C6 Plus Flow Cytometer (BD Biosciences, Franklin Lakes, NJ, USA) cytometer was used to analyze the samples, and BD Accuri™ C6 Software (version 1.0.264.21) was used for data analysis.

[3] = system: microtubule network of MCF7 cells; assay: Immunofluorescence confocal microscopy of microtubule network, MCF7; conditions: MCF7, 24 h, 100 nM, α-tubulin immunofluorescence
Experimental: (§3) To elucidate if the interaction of the compounds with tubulin inferred from the in vitro TPI experiments has consequences on cellular microtubules, we studied the effect of representative compounds on the microtubule network of HeLa, MCF7, and U87 MG cells 24 h after treatment via the use of immunofluorescence confocal microscopy through α-tubulin and nuclei labeling.
(§4) HeLa, MCF7, and U87 MG cells (8·10^4 cells/mL) were grown on 0.01% poly-L-lysine pre-coated square glass coverslips (22 mm^2), deposited on 6-well plates (1 coverslip/well), and incubated in complete DMEM medium (see above) at 37 °C and 5% CO2 atmosphere for 24 h. Then, the cells were incubated for 24 h in the presence or absence (negative controls) of selected compounds (10, 12, or 14) at 100 nM. After drug treatment incubation, medium was removed, and coverslips were washed three times with PBS, fixed with 4% formaldehyde in PBS for 10 min, permeabilized with 0.5% Triton X-100, (Sigma-Aldrich, St. Louis, MO, USA) in PBS for 90 s at 4 °C, blocked with 10% BSA in PBS for 30 min, and washed with PBS four times. The coverslips were incubated for 1 h with anti-α-tubulin mouse monoclonal antibody (Sigma-Aldrich, St. Louis, MO, USA), diluted 1:200 in PBS containing 3% BSA, washed four times with PBS, and then incubated in darkness with the fluorescent secondary antibody Alexa Fluor 488 goat anti-mouse IgG (Molecular Probes, Invitrogen, Eugenen, OR, USA) and diluted 1:400 in PBS containing 1% BSA for 1.5 h. The coverslips were washed four times with PBS, and a drop of ProLong™ Gold Antifade Mountant containing DAPI (ThermoFisher, Waltham, MA, USA) was added for cell nuclei staining. The samples were analyzed via confocal microscopy, which was performed by using a LEICA SP5 microscope DMI-6000V model coupled to a LEICA LAS AF software computer.

[4] = system: microtubule network of U87 MG cells; assay: Immunofluorescence confocal microscopy of microtubule network, U87 MG; conditions: 24 h, 100 nM, α-tubulin immunofluorescence
Experimental: as §3, §4

HeLa cells = assay: Cell cycle analysis by flow cytometry (PI), HeLa; conditions: 100 nM
Experimental: as §1, §2

Structure (SMILES)	early and late apoptotic populations (MCF7 cells [1]) [%]	Necrotic cells (MCF7 cells [1]) [%]	G0/G1 population (MCF7 cells [2]; MCF7, 24 h) [% Cells]	G2/M population (MCF7 cells [2]; MCF7, 24 h) [% Cells]	S population (MCF7 cells [2]; MCF7, 24 h) [% Cells]	SubG0/G1 population (MCF7 cells [2]; MCF7, 24 h) [% Cells]	G0/G1 population (MCF7 cells [2]; MCF7, 48 h) [% Cells]	G2/M population (MCF7 cells [2]; MCF7, 48 h) [% Cells]	S population (MCF7 cells [2]; MCF7, 48 h) [% Cells]	SubG0/G1 population (MCF7 cells [2]; MCF7, 48 h) [% Cells]	G0/G1 population (MCF7 cells [2]; MCF7, 72 h) [% Cells]	G2/M population (MCF7 cells [2]; MCF7, 72 h) [% Cells]	S population (MCF7 cells [2]; MCF7, 72 h) [% Cells]	SubG0/G1 population (MCF7 cells [2]; MCF7, 72 h)	effect on microtubule network [3]	effect on microtubule network [4]	G0/G1 population (HeLa cells; 24 h) [% Cells]	G2/M population (HeLa cells; 24 h) [% Cells]	S population (HeLa cells; 24 h) [% Cells]	SubG0/G1 population (HeLa cells; 24 h) [% Cells]	other results
CSc1cc(-c2nnnn2-c2ccc3c(ccn3C)c2)cc(Cl)n1 [Compound 10, 5-(5-(2-chloro-6-(methylsulfanyl)pyridin-4-yl)-1H-tetrazol-1-yl)-1-methyl-1H-indole]	22	2.3	22.5	65.8	3.9	7.7	16.9	58.1	4.6	20.4	13.7	54.8	4.4	27 % Cells and 27.2 % Cells	severe microtubule network disruption	severe microtubule network disruption	18.1	59.5	3.9	18.6	G0/G1 population (HeLa cells; 48 h): 16.7 % Cells; G2/M population (HeLa cells; 48 h): 45.9 % Cells; S population (HeLa cells; 48 h): 7.6 % Cells; SubG0/G1 population (HeLa cells; 48 h): 29.1 % Cells; G0/G1 population (HeLa cells; 72 h): 14.4 % Cells; G2/M population (HeLa cells; 72 h): 35.2 % Cells; S population (HeLa cells; 72 h): 4.9 % Cells; SubG0/G1 population (HeLa cells; 72 h): 45.6 % Cells
CSc1cc(-c2nnnn2-c2ccc3c(c2)c(C=O)cn3C)cc(Cl)n1 [Compound 14, 5-(5-(2-chloro-6-(methylsulfanyl)pyridin-4-yl)-1H-tetrazol-1-yl)-1-methyl-1H-indole-3-carbaldehyde]	29	2.6	22.7	66.0	5.9	5.2	16.8	58.4	6.9	17.9	19.1	38.7	8.1	34 % Cells and 34.6 % Cells	severe microtubule network disruption	severe microtubule network disruption	16.6	47.0	3.7	32.7	G0/G1 population (HeLa cells; 48 h): 17.1 % Cells; G2/M population (HeLa cells; 48 h): 34.1 % Cells; S population (HeLa cells; 48 h): 7.0 % Cells; SubG0/G1 population (HeLa cells; 48 h): 41.3 % Cells; G0/G1 population (HeLa cells; 72 h): 9.6 % Cells; G2/M population (HeLa cells; 72 h): 25.4 % Cells; S population (HeLa cells; 72 h): 8.1 % Cells; SubG0/G1 population (HeLa cells; 72 h): 57.4 % Cells
Cn1cc(C=O)c2cc(-n3nnnc3-c3cc(Cl)nc(Cl)c3)ccc21 [Compound 12, 5-(5-(2,6-dichloropyridin-4-yl)-1H-tetrazol-1-yl)-1-methyl-1H-indole-3-carbaldehyde]	8	7	19.4	68.6	7.0	5.2	16.4	62.9	7.9	13.1	15.0	59.1	10.8	15 % Cells and 15.5 % Cells	severe microtubule network disruption	severe microtubule network disruption	20.0	57.8	4.6	17.8	G0/G1 population (HeLa cells; 48 h): 18.2 % Cells; G2/M population (HeLa cells; 48 h): 40.8 % Cells; S population (HeLa cells; 48 h): 7.8 % Cells; SubG0/G1 population (HeLa cells; 48 h): 32.5 % Cells; G0/G1 population (HeLa cells; 72 h): 15.3 % Cells; G2/M population (HeLa cells; 72 h): 34.0 % Cells; S population (HeLa cells; 72 h): 5.6 % Cells; SubG0/G1 population (HeLa cells; 72 h): 45.4 % Cells
